Reference: ChEMBL document CHEMBL1127002, “Substituted pyrrolidin-2-one biphenyltetrazoles as angiotensin II antagonists” (Bioorg Med Chem Lett, 1993)
Active and inactive are the calls of the source. The rule behind the calls is not given here.

Key:
Oryctolagus cuniculus = organism: Oryctolagus cuniculus; test: Tested for inhibitory activity against angiotensin II induced contraction in rabbit aortic rings; format: functional; conditions: Aorta, read-out: pA2 (converted)
Rattus norvegicus = test: Tested for antihypertensive activity in spontaneously hypertensive rats (SHR) after oral administration; A - Compound shows antihypertensive activity.; format: functional, organism-based
[1] = target: T1, Type-1 angiotensin II receptor (Bos taurus, UniProt P25104); test: Concentration that gives 50% inhibition for binding of 125-I-[Sar1, IIe8] angiotensin to Angiotensin II receptor, type 1 in bovine adrenal cortex membrane.; format: cell membranes
T1 sequence (P25104 whole entry): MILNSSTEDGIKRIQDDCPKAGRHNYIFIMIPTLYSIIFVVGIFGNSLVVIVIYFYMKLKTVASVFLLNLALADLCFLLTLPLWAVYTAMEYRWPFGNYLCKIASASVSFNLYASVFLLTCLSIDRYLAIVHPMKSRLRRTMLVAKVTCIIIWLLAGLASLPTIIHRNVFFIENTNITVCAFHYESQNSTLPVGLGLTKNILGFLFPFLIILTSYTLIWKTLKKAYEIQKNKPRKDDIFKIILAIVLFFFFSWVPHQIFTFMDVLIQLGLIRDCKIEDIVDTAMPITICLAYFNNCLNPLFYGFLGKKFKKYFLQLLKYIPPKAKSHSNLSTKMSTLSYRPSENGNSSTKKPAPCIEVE

IC50 [1] | SMILES | Kb (Oryctolagus cuniculus) | Activity (Rattus norvegicus)
– | CCOC(=O)/C=C1\C2C(C(=O)N1Cc1ccc(-c3ccccc3-c3nn[nH]n3)cc1)C1CCC2C1(C)C (centres undefined) | 251 nM | –
– | CCOC(=O)/C=C1\C2CCCCC2C(=O)N1Cc1ccc(-c2ccccc2-c2nn[nH]n2)cc1 (centres undefined) | 3.98 nM | –
– | CCOC(=O)/C=C1\C2C3C=CC(CC3)C2C(=O)N1Cc1ccc(-c2ccccc2-c2nn[nH]n2)cc1 (centres undefined) | 6.31 nM | –
– | CCOC(=O)/C=C1\N(Cc2ccc(-c3ccccc3-c3nn[nH]n3)cc2)C(=O)CC12CCCCCC2 | 3.98 nM | Active
– | CCOC(=O)/C=C1\C2CC=CCC2C(=O)N1Cc1ccc(-c2ccccc2-c2nn[nH]n2)cc1 (centres undefined) | 31.6 nM | –
3100 nM | CCOC(=O)/C=C1/C(C)CC(=O)N1Cc1ccc(-c2ccccc2-c2nn[nH]n2)cc1 (centres undefined) | 316 nM | –
140 nM | CCOC(=O)/C=C1\N(Cc2ccc(-c3ccccc3-c3nnn[nH]3)cc2)C(=O)CC12CCCCC2 | 12.6 nM | –
250 nM | CCOC(=O)/C=C1\N(Cc2ccc(-c3ccccc3-c3nn[nH]n3)cc2)C(=O)CC12CCCC2 | 3.16 nM | –
– | CCOC(=O)/C=C1\C2C(C(=O)N1Cc1ccc(-c3ccccc3-c3nn[nH]n3)cc1)C1CCC2C1(c1ccccc1)c1ccccc1 (centres undefined) | > 1000 nM | –
– | CCOC(=O)/C=C1\C2C3CCC(C3)C2C(=O)N1Cc1ccc(-c2ccccc2-c2nn[nH]n2)cc1 (centres undefined) | 1 nM | –
– | CCOC(=O)/C=C1\C2C3CCC(CC3)C2C(=O)N1Cc1ccc(-c2ccccc2-c2nn[nH]n2)cc1 (centres undefined) | 10 nM | A
100 nM | CCOC(=O)/C=C1\N(Cc2ccc(-c3ccccc3-c3nn[nH]n3)cc2)C(=O)CC1(CC)CC | 12.6 nM | –
– | CCOC(=O)/C=C1\C2C3C=CC(C3)C2C(=O)N1Cc1ccc(-c2ccccc2-c2nn[nH]n2)cc1 (centres undefined) | 3.98 nM | –
– | CCOC(=O)/C=C1\C2C3CCCC(CC3)C2C(=O)N1Cc1ccc(-c2ccccc2-c2nn[nH]n2)cc1 (centres undefined) | 20 nM | A
425 nM | CCCCc1nc(Cl)c(CO)n1Cc1ccc(-c2ccccc2-c2nnn[nH]2)cc1 [LOSARTAN] | 1.58 nM | –
– | CCOC(=O)/C=C1\C2C(C(=O)N1Cc1ccc(-c3ccccc3-c3nn[nH]n3)cc1)C1C=CC2(OC)CC1 (centres undefined) | 5.01 nM | –
60 nM | CCOC(=O)/C=C1\N(Cc2ccc(-c3ccccc3-c3nnn[nH]3)cc2)C(=O)CC12CCCCCC2 | – | –
– | CCOC(=O)/C=C1\C2C3C=CC(CCC3)C2C(=O)N1Cc1ccc(-c2ccccc2-c2nn[nH]n2)cc1 (centres undefined) | 39.8 nM | –
– | CCOC(=O)/C=C1\C2C3CCC(O3)C2C(=O)N1Cc1ccc(-c2ccccc2-c2nn[nH]n2)cc1 (centres undefined) | 3.98 nM | –
60 nM | CCOC(=O)/C=C1\N(Cc2ccc(-c3ccccc3-c3nn[nH]n3)cc2)C(=O)CC1(C)CC (centres undefined) | 25.1 nM | –
